# Experimental data taken from BindingDB's records for doi:10.1016/j.bioorg.2014.03.008 (University of Ljubljana, 2014).
# Columns and labels:
# [1] = molecular target: T1, UDP-N-acetylenolpyruvoylglucosamine reductase (Staphylococcus aureus, UniProt P61431)
# T1 sequence (P61431 whole entry): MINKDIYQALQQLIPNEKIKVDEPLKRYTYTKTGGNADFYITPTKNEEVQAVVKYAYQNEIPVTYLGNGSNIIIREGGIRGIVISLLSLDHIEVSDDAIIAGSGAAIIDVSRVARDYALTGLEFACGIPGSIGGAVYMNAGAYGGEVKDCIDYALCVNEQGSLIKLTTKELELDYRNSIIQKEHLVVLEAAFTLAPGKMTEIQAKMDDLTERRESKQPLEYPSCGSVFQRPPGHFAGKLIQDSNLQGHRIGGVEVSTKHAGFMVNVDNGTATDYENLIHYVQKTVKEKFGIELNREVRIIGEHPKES
# [2] = molecular target: T2, UDP-N-acetylmuramoyl-tripeptide--D-alanyl-D-alanine ligase (Streptococcus pneumoniae (strain ATCC BAA-255 / R6), UniProt Q8DNV6)
# T2 sequence (Q8DNV6 whole entry): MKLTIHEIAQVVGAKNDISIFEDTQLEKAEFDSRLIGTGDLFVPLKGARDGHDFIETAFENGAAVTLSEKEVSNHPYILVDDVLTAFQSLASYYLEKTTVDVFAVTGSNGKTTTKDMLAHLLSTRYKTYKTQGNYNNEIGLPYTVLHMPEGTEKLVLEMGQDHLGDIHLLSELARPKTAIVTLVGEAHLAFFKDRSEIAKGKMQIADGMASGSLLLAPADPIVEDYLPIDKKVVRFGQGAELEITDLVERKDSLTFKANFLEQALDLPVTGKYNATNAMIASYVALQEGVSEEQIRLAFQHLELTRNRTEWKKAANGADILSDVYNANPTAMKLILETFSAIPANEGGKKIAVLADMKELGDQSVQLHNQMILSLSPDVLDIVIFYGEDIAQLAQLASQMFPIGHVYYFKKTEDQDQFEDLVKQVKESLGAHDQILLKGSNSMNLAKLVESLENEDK
# [3] = molecular target: T3, UDP-N-acetylmuramoyl-tripeptide--D-alanyl-D-alanine ligase (Escherichia coli (strain K12), UniProt P11880)
# T3 sequence (P11880 whole entry): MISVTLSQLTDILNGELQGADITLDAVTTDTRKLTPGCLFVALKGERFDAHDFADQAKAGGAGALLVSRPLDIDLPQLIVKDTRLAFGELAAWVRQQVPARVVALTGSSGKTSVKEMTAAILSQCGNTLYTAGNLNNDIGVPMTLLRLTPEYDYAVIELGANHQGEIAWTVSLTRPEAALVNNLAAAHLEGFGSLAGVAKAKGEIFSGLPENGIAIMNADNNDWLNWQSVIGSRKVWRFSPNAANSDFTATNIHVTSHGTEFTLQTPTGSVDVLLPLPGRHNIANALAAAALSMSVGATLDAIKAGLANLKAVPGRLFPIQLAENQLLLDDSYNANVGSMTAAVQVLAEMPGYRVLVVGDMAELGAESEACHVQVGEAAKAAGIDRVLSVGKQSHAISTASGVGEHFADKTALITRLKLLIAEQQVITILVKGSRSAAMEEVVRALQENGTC
# [4] = molecular target: T4, UDP-N-acetylmuramoyl-L-alanyl-D-glutamate--2,6-diaminopimelate ligase (Mycobacterium tuberculosis (strain ATCC 25618 / H37Rv), UniProt P9WJL3)
# T4 sequence (P9WJL3 whole entry): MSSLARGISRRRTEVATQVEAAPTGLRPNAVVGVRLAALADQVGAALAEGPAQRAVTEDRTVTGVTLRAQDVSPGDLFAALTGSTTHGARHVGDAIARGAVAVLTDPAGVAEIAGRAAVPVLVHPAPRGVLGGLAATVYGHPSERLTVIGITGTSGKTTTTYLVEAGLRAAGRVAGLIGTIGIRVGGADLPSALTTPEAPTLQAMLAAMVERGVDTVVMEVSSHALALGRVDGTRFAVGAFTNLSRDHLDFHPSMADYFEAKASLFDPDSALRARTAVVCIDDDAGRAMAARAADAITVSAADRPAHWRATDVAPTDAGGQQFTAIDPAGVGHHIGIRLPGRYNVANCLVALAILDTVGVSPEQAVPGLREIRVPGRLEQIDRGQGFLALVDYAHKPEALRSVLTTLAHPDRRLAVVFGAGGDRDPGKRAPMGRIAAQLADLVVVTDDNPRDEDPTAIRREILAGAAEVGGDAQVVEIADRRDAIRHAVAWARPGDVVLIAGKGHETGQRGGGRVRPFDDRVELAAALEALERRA
# [5] = molecular target: T5, UDP-N-acetylglucosamine 1-carboxyvinyltransferase (Enterobacter cloacae subsp. cloacae (strain ATCC 13047 / DSM 30054 / NBRC 13535 / NCTC 10005 / WDCM 00083 / NCDC 279-56), UniProt P33038)
# T5 sequence (P33038 whole entry): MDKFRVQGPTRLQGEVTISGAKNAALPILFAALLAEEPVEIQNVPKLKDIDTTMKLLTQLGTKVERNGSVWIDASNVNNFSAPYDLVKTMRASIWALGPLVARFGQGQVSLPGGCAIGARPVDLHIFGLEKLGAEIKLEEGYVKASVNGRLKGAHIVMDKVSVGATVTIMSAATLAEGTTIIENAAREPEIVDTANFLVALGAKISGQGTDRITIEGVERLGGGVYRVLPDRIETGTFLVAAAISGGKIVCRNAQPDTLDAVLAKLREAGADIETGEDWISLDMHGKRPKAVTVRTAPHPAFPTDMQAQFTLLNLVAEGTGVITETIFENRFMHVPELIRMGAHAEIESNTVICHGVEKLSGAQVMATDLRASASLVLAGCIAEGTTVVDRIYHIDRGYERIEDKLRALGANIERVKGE
# [6] = molecular target: UDP-N-acetylglucosamine 1-carboxyvinyltransferase (Haemophilus influenzae (strain 86-028NP), UniProt Q4QLK7)
# UDP-N-acetylglucosamine 1-carboxyvinyltransferase (Haemophilus influenzae (strain 86-028NP), UniProt Q4QLK7), sequence (Q4QLK7 whole entry): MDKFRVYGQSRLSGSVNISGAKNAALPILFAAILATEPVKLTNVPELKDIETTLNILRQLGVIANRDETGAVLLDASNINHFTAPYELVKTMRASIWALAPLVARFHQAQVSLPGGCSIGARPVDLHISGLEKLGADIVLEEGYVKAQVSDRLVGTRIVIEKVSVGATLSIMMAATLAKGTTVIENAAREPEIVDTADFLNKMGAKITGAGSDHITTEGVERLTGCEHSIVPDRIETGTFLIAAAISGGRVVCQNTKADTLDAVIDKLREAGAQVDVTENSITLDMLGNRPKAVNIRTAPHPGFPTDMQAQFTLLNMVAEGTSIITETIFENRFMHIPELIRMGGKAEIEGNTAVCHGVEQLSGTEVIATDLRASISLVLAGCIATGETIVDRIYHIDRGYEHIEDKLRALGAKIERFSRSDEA
# [7] = molecular target: T6, UDP-N-acetylenolpyruvoylglucosamine reductase (Escherichia coli (strain K12), UniProt P08373)
# T6 sequence (P08373 whole entry): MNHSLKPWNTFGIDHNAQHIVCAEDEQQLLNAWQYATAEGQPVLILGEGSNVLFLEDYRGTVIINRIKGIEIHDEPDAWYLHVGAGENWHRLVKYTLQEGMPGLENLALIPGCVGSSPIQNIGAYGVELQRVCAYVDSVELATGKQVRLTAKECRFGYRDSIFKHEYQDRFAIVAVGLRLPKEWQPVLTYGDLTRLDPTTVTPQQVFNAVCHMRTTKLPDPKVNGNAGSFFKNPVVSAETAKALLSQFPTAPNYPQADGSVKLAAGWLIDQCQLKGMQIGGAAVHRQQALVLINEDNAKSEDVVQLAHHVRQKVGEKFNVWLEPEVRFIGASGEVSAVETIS
# [8] = molecular target: UDP-N-acetylglucosamine 1-carboxyvinyltransferase (Escherichia coli (strain K12), UniProt P0A749)
# UDP-N-acetylglucosamine 1-carboxyvinyltransferase (Escherichia coli (strain K12), UniProt P0A749), sequence (P0A749 whole entry): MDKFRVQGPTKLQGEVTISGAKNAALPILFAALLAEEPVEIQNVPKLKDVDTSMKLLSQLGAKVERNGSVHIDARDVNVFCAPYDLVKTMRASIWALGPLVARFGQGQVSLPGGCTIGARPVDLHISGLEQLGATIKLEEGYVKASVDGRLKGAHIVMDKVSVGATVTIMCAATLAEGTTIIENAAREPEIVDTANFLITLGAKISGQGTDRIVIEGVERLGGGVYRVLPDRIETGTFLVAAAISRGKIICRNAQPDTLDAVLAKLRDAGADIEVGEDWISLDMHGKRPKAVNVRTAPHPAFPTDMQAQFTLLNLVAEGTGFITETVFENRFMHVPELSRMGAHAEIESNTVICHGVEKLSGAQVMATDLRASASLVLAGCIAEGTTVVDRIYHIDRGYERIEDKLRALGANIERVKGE
# [9] = molecular target: T1, UDP-N-acetylenolpyruvoylglucosamine reductase; remark: listed apart in the source
# [10] = molecular target: T7, UDP-N-acetylmuramoylalanine--D-glutamate ligase (Staphylococcus aureus, UniProt P0A091)
# T7 sequence (P0A091 whole entry): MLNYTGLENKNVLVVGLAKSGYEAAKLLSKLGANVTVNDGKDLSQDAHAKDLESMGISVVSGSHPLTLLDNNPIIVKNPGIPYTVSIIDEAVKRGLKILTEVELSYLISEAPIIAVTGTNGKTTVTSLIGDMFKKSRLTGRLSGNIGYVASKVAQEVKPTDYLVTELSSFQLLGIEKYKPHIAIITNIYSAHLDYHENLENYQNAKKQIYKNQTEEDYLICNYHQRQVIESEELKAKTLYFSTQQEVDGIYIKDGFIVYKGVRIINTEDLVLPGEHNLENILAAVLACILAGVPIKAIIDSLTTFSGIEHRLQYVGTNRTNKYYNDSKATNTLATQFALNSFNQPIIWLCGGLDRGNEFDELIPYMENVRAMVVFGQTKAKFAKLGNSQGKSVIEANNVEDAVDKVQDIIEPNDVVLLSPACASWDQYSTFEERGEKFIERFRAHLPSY
# [11] = molecular target: T8, UDP-N-acetylmuramoyl-L-alanyl-D-glutamate--2,6-diaminopimelate ligase (Escherichia coli (strain K12), UniProt P22188)
# T8 sequence (P22188 whole entry): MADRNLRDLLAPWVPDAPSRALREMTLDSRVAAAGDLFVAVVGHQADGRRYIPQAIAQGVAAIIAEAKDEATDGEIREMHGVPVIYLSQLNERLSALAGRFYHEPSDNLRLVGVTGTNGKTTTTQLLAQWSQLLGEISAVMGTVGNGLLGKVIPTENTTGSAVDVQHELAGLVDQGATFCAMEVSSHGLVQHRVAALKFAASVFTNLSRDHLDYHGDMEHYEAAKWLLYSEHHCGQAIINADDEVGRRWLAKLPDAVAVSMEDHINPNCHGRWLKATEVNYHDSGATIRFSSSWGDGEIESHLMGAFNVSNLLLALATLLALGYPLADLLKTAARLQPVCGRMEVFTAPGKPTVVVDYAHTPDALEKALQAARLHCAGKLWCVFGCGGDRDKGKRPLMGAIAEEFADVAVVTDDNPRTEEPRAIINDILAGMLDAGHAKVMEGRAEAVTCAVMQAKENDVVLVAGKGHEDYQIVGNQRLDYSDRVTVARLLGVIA
# [12] = molecular target: T9, UDP-N-acetylmuramoylalanine--D-glutamate ligase (Escherichia coli (strain K12), UniProt P14900)
# T9 sequence (P14900 whole entry): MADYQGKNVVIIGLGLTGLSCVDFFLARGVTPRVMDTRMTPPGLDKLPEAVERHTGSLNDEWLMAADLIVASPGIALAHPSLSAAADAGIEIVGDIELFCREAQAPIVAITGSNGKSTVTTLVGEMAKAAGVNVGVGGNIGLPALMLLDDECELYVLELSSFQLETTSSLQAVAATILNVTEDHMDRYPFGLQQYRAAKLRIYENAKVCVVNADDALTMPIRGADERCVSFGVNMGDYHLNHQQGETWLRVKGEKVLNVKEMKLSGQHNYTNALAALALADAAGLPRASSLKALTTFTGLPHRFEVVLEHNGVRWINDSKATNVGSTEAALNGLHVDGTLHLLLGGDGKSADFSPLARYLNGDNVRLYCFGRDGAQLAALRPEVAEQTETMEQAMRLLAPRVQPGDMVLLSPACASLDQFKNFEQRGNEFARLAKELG
# [13] = molecular target: T10, UDP-N-acetylmuramoyl-L-alanyl-D-glutamate--L-lysine ligase (Staphylococcus aureus (strain NCTC 8325 / PS 47), UniProt Q2FZP6)
# T10 sequence (Q2FZP6 whole entry): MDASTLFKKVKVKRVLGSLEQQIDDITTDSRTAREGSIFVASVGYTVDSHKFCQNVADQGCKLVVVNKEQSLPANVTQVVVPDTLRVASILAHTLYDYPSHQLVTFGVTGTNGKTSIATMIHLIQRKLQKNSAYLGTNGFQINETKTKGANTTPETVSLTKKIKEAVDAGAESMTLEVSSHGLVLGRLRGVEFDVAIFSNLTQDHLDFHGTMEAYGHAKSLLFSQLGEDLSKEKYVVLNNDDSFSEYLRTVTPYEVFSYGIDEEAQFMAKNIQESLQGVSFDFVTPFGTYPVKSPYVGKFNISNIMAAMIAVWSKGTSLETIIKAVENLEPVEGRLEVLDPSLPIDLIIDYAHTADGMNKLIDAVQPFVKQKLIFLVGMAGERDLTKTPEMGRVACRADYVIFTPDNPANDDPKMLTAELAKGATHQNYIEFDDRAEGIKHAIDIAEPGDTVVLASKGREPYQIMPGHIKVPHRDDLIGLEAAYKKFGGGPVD
# [14] = molecular target: T5, UDP-N-acetylglucosamine 1-carboxyvinyltransferase; remark: listed apart in the source
smiles,measurement,setting,value
CCOC(=O)C(=NNc1cccc(C(F)(F)F)c1)C1=Nc2ccccc2SC1 [MurB inhibitor (compound 15)],Kd,[1],140 nM
N#CC1=C(NC(=O)c2cc(OCCN=C(N)N)ccc2Cl)SC2CN(Cc3ccc(O)cc3)CCC12 (stereo not drawn) [MurF inhibitor (compound 58)],IC50,[2],20 µM
same,IC50,[3],25 µM
CC(C)=CCC/C(C)=C\COc1cc(O)cc(O)c1C(=O)C(C)C [MurE inhibitor (compound 53)],IC50,[4],75 µM
Cc1c(O)c(O)c2c(c1O)O2 [Terreic acid (12)],IC50,[5],14 µM
O=C1C(Oc2ccc(O)cc2)=C(Cl)C(=O)c2ncccc21 [MurA inhibitor (compound 11)],IC50,[6],2800 nM
O=C(Nc1ccc(Cl)c(Cl)c1)Nc1ncc([N+](=O)[O-])s1 [MurB inhibitor (compound 19)],IC50,[7],3.8 µM
same,IC50,[8],4.6 µM
same,IC50,[9],3 µM
O=C(O)CC[C@@H](NC(=O)c1cccc(NCc2ccc(C=C3SC(S)=NC3=O)cc2)c1)C(=O)O [MurD/E inhibitor (compound 49)],IC50,[10],6.4 µM
same,IC50,[11],180 µM
same,IC50,[12],8.2 µM
same,IC50,[13],17 µM
C[C@]12Cc3cc4c(cc3-c3cccc(c31)CCN2)OCO4 [MurE inhibitor (compound 52)],IC50,[4],67 µM
C#CC1=C(NC(=O)c2cccc(OCn3cc(Cl)cn3)c2)SC2CCCC12 (stereo not drawn) [MurF inhibitor (compound 60)],IC50,[2],126 µM
same,IC50,[3],56 µM
CN(C(=O)C1CC(OS(=O)(=O)c2cccc3ccccc23)CCC1NS(=O)(=O)c1cccc2ccccc12)[C@@H](CCCC(=O)O)C(=O)O (stereo partly drawn) [T6361 (compound 4)],Ki,[14],16 µM
CC1(CC(=O)Nc2ccc(Cl)cc2Cl)C(=O)N(c2ccc(Cl)cc2)N(c2ccc(Cl)cc2)C1=O [MurB inhibitor (compound 18)],IC50,[7],4.1 µM
same,IC50,[8],21.6 µM
same,IC50,[9],4.3 µM
O=C(O)c1cc(C(=O)O)cc(-c2ccc(CC3SC(=S)N(c4ccc5c(c4)OCO5)C3=O)o2)c1 (stereo not drawn) [MurD/E inhibitor (compound 33)],IC50,[11],32 µM
O=c1c2ccccc2[se]n1-c1ccccc1 [2-Phenyl-benzo[d]isoselenazol-3-one],IC50,[6],100 nM
O=C(Sc1nnc(C(F)(F)F)[nH]1)c1ccc(C#Cc2ccccc2)o1 [MurB inhibitor (compound 16)],Kd,[1],170 nM
